Experimental data as given in patent publication EP1203770A1 (priority 1992, dated 1994).
Several values for one entry are separate records, joined by “and”; a condition that tells them apart may be missing. Equal entries are not always repeated.

Target: T1, HIV-1 protease (Human immunodeficiency virus type 1 group M subtype B, UniProt P04585)
T1 construct: The protease (or proteinase), consisting of only 99 amino acids, is among the smallest enzymes known
Assay: In vitro HIV protease inhibitory assay (HIV Protease FITC Assay)
Assay type: biochemical
Conditions: for inhibition at 0.123 µM: HIV-1 Dose 0.123 uM; for inhibition at 0.123 µM / inhibition at 0.37 µM / inhibition at 1.1 µM / inhibition at 3.3 µM / inhibition at 10 µM / inhibition at 30 µM / inhibition at 0.41 µM / inhibition at 1.23 µM / inhibition at 3.7 µM / inhibition at 11 µM / inhibition at 33 µM / inhibition at 100 µM / inhibition at 1 µM: read-out: HIV-1 Protease % Inhib; for inhibition at 0.37 µM: HIV-1 Dose 0.370 uM; for inhibition at 1.1 µM: HIV-1 Dose 1.100 uM; for inhibition at 3.3 µM: HIV-1 Dose 3.300 uM; for inhibition at 30 µM: HIV-1 Dose 30.000 uM; for Ki: read-out: HIV-1 FITC Ki; for inhibition at 0.41 µM: HIV-1 Dose 0.410 uM; for inhibition at 1.23 µM: HIV-1 Dose 1.230 uM; for inhibition at 3.7 µM: HIV-1 Dose 3.700 uM; for inhibition at 11 µM: HIV-1 Dose 11.000 uM; for inhibition at 33 µM: HIV-1 Dose 33.000 uM
Procedure, shortened: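 Percent inhibition was read as fluorescence after avidin-bead capture and filtration separated FITC cleavage product from biotinylated substrate. Enzyme and substrate reacted 1 h, RT, dark, at pH 5.5 (0.1 M sodium acetate, 1.0 M NaCl, 0.05% NP-40).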

Compound | inhibition at 10 µM (HIV-1 Dose 10.000 uM) [%] | Ki [nM] | inhibition at 100 µM (HIV-1 Dose 100.000 uM) [%] | inhibition at 1 µM (HIV-1 Dose 1.000 uM) [%] | other results
CCC(CC1COc2ccccc2O1)c1cc(O)c(C(c2ccccc2)C2CC2)c(=O)o1 (centres unmarked) [Example 74, 3-(Cyclopropyl-phenyl-methyl)-6-[1-(2,3-dihydro-benzo[1,4]dioxin-2-ylmethyl)-propyl]-4-hydroxy-pyran-2-one] | 96.7 | 186 |  |  | inhibition at 0.123 µM: < 10%; inhibition at 0.37 µM: 17.5%; inhibition at 1.1 µM: 53.4%; inhibition at 3.3 µM: 81.4%; inhibition at 30 µM: 106%
CC(C)Cc1cc(O)c(C(c2ccccc2)C2CC2)c(=O)o1 (centres unmarked) [Example 75, 3-(Cyclopropyl-phenyl-methyl)-4-hydroxy-6-isobutyl-pyran-2-one] | 98.5 | 127 |  |  | inhibition at 0.123 µM: 11.5%; inhibition at 0.37 µM: 33.8%; inhibition at 1.1 µM: 66%; inhibition at 3.3 µM: 86.6%; inhibition at 30 µM: 104%
CCC(CC1=CCCOC1)c1cc(O)c(C(c2ccccc2)C2CC2)c(=O)o1 (centres unmarked) [Example 76, 3-(Cyclopropyl-phenyl-methyl)-6-[1-(5,6-dihydro-2H-pyran-3-ylmethyl)-propyl]-4-hydroxy-pyran-2-one] | 102 |  |  |  | inhibition at 0.123 µM: 25%; inhibition at 0.37 µM: 54%; inhibition at 1.1 µM: 82.4%; inhibition at 3.3 µM: 98.9%; inhibition at 30 µM: 105%
CCC(c1ccccc1)c1c(O)c(Br)c(C(CC2CC2)CC2CC2)oc1=O (centres unmarked) [Example 77] |  | 75 | 110 |  | inhibition at 0.41 µM: 69.4%; inhibition at 1.23 µM: 86.9%; inhibition at 3.7 µM: 101%; inhibition at 11 µM: 109%; inhibition at 33 µM: 108%
CCCc1oc(=O)c(C(c2ccccc2)C2CC2)c(O)c1CCOCCOC (centres unmarked) [Example 78, 3-(Cyclopropyl-phenyl-methyl)-4-hydroxy-5-[2-(2-methoxy-ethoxy)-ethyl]-6-propyl-pyran-2-one] |  | 196 | 106 |  | inhibition at 0.41 µM: 50.5%; inhibition at 1.23 µM: 68.9%; inhibition at 3.7 µM: 93.2%; inhibition at 11 µM: 101%; inhibition at 33 µM: 107%
O=c1oc(C(CC2CC2)CC2CC2)cc(O)c1C(Cc1ccccc1)Cc1ccccc1 [Example 79, 3-(1-Benzyl-2-phenyl-ethyl)-6-(2-cyclopropyl-1-cyclopropylmethyl-ethyl)-4-hydroxy-pyran-2-one] | 122 | 33 |  |  | inhibition at 0.123 µM: 39.9%; inhibition at 0.37 µM: 76.7%; inhibition at 1.1 µM: 106%; inhibition at 3.3 µM: 111%; inhibition at 30 µM: 117%
CC(C)CC(CC(C)C)c1cc(O)c(C(c2ccccc2)C2CC2)c(=O)o1 (centres unmarked) [Example 80, 3-(Cyclopropyl-phenyl-methyl)-4-hydroxy-6-(1-isobutyl-3-methyl-butyl)-pyran-2-one] | 78.9 |  | 102 | 50.5 | 
O=c1oc(C(CC2CC2)CC2CC2)cc(O)c1C(c1ccccc1)C1CC1 (centres unmarked) [Example 81] |  | 31 |  |  | HIV-1 Protease % Inhib (HIV-1 Dose 1.000 uM): 41.76%; HIV-1 Protease % Inhib (HIV-1 Dose 10.000 uM): 76.98%; HIV-1 Protease % Inhib (HIV-1 Dose 100.000 uM): 83.48% and 83.5%; HIV-1 Protease % Inhib (dose not given): <10%
O=c1oc(CCc2ccccc2)cc(O)c1C(C1CC1)C1CC1 [Example 82, 3-Dicyclopropylmethyl-4-hydroxy-6-phenethyl-pyran-2-one] | 90.9 |  | 106 | 19.8 | 
CC(c1cc(O)c(C(C2CC2)C2CC2)c(=O)o1)C1CC1 (centres unmarked) [Example 83, 6-(1-Cyclopropyl-ethyl)-3-dicyclopropylmethyl-4-hydroxy-pyran-2-one] | 72 |  | 93.5 | 10.5 | 
CC(CC1CC1)(c1cc(O)c(C(C2CC2)C2CC2)c(=O)o1)C1CC1 (centres unmarked) [Example 84, 6-(1-Cyclopropyl-1-cyclopropylmethyl-ethyl)-3-dicyclopropylmethyl-4-hydroxy-pyran-2-one] | 91 |  |  | 54.8 | HIV-1 Protease % Inhib (HIV-1 Dose 100.000 uM): 120.09% and 100%
CCC(CC1CCCCC1)c1cc(O)c(C(c2ccccc2)C2CC2)c(=O)o1 (centres unmarked) [Example 85, 6-(1-Cyclohexylmethyl-propyl)-3-(cyclopropyl-phenyl-methyl)-4-hydroxy-pyran-2-one] | 77 |  | 92.1 | 11.6 | 
CCC(c1ccccc1)c1c(O)cc(C(CC2CC2)CC2CC2)oc1=O (centres unmarked) [Example 87, 6-(2-Cyclopropyl-1-cyclopropylmethyl-ethyl)-4-hydroxy-3(1-phenyl-propyl)-pyran-2-one] | 83.8 |  | 90.2 | 17.8 | 
O=c1oc(C(Cc2ccccc2)CC2CC2)cc(O)c1C(c1ccccc1)C1CC1 (centres unmarked) [Example 88, 6-(1-Benzyl-2-cyclopropyl-ethyl)-3-(cyclopropyl-phenyl-methyl)-4-hydroxy-pyran-2-one] | 60.8 |  | 95.1 | 46.2 | 
O=c1oc(CCC2CC2)cc(O)c1C(c1ccccc1)C1CC1 (centres unmarked) [Example 89, 6-(2-Cyclopropyl-ethyl)-3-(cyclopropyl-phenyl-methyl)-4-hydroxy-pyran-2-one] | 70 |  | 84 | < 10 | HIV-1 Protease % Inhib (dose not given): <10%
CCC(CC1CC1)c1cc(O)c(C(c2ccccc2)C2CC2)c(=O)o1 (centres unmarked) [Example 90, 6-(1-Cyclopropylmethyl-propyl)-3-(cyclopropyl-phenyl-methyl)-4-hydroxy-pyran-2-one] | 95.1 |  | 95.9 | 61.2 | HIV-1 Protease % Inhib (HIV-1 Dose 100.000 uM): 96%
O=c1oc(CCCCc2ccccc2)cc(O)c1C(c1ccccc1)C1CC1 (centres unmarked) [Example 91, 3-(Cyclopropyl-phenyl-methyl)-4-hydroxy-6-(4-phenyl-butyl)-pyran-2-one] | 27.8 |  | 62 | < 10 | 
O=c1oc(C(CC2CC2)CC2CC2)cc(O)c1C(C1CCCCC1)C1CC1 (centres unmarked) [Example 92, 3-(Cyclohexyl-cyclopropyl-methyl)-6-(2-cyclopropyl-1-cyclopropylmethyl-ethyl)-4-hydroxy-pyran-2-one] | 80.9 |  | 87.1 | 38.3 | 
CCC(CCCc1ccccc1)c1cc(O)c(C(c2ccccc2)C2CC2)c(=O)o1 (centres unmarked) [Example 93, 3-(Cyclopropyl-phenyl-methyl)-6-(1-ethyl-4-phenyl-butyl)-4-hydroxy-pyran-2-one] | 72.6 |  | 79.3 |  | HIV-1 Protease % Inhib (HIV-1 Dose 10.000 uM): 67.65% and 71.27%; HIV-1 Protease % Inhib (HIV-1 Dose 100.000 uM): 59.48% and 67.68%; HIV-1 Protease % Inhib (dose not given): <10%
O=c1oc(CCCC2CCCCC2)cc(O)c1C(c1ccccc1)C1CC1 (centres unmarked) [Example 94, 6-(3-Cyclohexyl-propyl)-3-(cyclopropyl-phenyl-methyl)-4-hydroxy-pyran-2-one] | 25 |  | 52.4 | < 10 | 
CCC(CCC1CCCCC1)c1cc(O)c(C(c2ccccc2)C2CC2)c(=O)o1 (centres unmarked) [Example 95, 6-(3-Cyclohexyl-1-ethyl-propyl)-3-(cyclopropyl-phenyl-methyl)-4-hydroxy-pyran-2-one] | 33.6 |  | 41 | < 10 | 
CCC(c1ccccc1)c1c(O)cc(CCC2CC2)oc1=O (centres unmarked) [Example 96, 6-(2-Cyclopropyl-ethyl)-4-hydroxy-3-(1-phenyl-propyl)-pyran-2-one] | 77 | 1400 | 90.5 | 27.9 | 
C=CCC(CC=C)c1cc(O)c(C(c2ccccc2)C2CC2)c(=O)o1 (centres unmarked) [Example 97, 6-(1-Allyl-but-3-enyl)-3-(cyclopropyl-phenyl-methyl)-4-hydroxy-pyran-2-one] | 99.6 | 100 | 110 | 75.9 | 
C=CCCc1cc(O)c(C(c2ccccc2)C2CC2)c(=O)o1 (centres unmarked) [Example 98, 6-But-3-enyl-3-(cyclopropyl-phenyl-methyl)-4-hydroxy-pyran-2-one] | 93.5 |  | 110 | 50.8 | 
CCC(CCc1ccccc1)c1cc(O)c(C(c2ccccc2)C2CC2)c(=O)o1 (centres unmarked) [Example 99, 3-(Cyclopropyl-phenyl-methyl)-6-(1-ethyl-3-phenyl-propyl)-4-hydroxy-pyran-2-one] | 99.6 |  | 90.7 | 71.5 | 
CCC(c1ccccc1)c1c(O)c(Br)c(CCC2CC2)oc1=O (centres unmarked) [Example 100, 5-Bromo-6-(2-cyclopropyl-ethyl)-4-hydroxy-3-(1-phenyl-propyl)-pyran-2-one] | 94.6 | 480 | 104 | 38.3 | 
CCC(c1ccccc1)c1c(O)cc(C(Cc2ccccc2)Cc2ccccc2)oc1=O (centres unmarked) [Example 101, 6-(1-Benzyl-2-phenyl-ethyl)-4-hydroxy-3-(1-phenyl-propyl)-pyran-2-one] | 78.8 |  | 97.9 | 52.2 | 
